Measured values: ChEMBL document CHEMBL1132596, “Non-peptide corticotropin-releasing hormone antagonists: syntheses and structure-activity relationships of 2-anilinopyrimidines and -triazines” (J Med Chem, 1999)
“And” between values parts separate entries of the source, which are not always exact repeats. Identical values can stand only once.

Legend:
[1] = target: T1, Corticotropin-releasing factor receptor 1 (Homo sapiens, UniProt P34998); assay: Binding affinity for human recombinant corticotropin releasing factor receptor 1
T1 sequence (P34998 whole entry): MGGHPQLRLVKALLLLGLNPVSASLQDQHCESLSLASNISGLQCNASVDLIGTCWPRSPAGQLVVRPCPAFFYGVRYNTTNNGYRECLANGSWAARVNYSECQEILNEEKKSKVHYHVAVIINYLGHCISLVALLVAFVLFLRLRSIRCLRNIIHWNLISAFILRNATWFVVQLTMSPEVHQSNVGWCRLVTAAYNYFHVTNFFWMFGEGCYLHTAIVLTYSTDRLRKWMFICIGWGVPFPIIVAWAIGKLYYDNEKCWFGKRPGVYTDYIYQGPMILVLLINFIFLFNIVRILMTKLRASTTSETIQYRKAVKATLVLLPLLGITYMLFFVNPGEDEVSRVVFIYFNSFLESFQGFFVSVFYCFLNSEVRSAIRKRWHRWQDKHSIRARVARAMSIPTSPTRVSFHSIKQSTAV

[2] = target: T2, Corticotropin-releasing factor receptor 1 (Rattus norvegicus, UniProt P35353); assay: Binding affinity was measured on rat Corticotropin releasing factor receptor 1
T2 sequence (P35353 whole entry): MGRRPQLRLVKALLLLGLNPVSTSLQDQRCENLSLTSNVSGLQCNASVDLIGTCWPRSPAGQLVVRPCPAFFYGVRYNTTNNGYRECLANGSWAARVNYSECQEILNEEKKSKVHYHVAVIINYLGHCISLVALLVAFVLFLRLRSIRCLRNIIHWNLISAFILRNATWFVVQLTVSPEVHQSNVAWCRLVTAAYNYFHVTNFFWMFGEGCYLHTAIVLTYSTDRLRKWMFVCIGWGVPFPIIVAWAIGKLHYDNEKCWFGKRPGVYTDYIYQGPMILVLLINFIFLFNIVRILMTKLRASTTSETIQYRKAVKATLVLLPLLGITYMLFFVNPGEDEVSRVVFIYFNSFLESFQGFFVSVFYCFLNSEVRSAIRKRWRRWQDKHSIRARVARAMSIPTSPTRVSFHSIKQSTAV

SMILES | Ki [1] | Ki [2] [nM]
CCN(c1nc(C)cc(C)n1)c1c(Br)cc(C(C)C)cc1OC | 26 nM | –
CCN(CC)c1cc(C)nc(N(CC)c2c(Br)cc(C(C)C)cc2SC)n1 | 26 nM | –
CCc1ccc(N(C)c2nc(C)cc(C)n2)c(Br)c1 | – | 187
CCN(c1nc(C)cc(C)n1)c1ccc(C(C)C)cc1I | – | 38
CCN(c1nc(C)cc(N(CCOC)Cc2ccccc2)n1)c1ccc(C(C)C)cc1Br | 14 nM | –
CCN(CC)c1cc(C)nc(N(CC)c2c(Cl)cc(Br)cc2Cl)n1 | 24 nM | –
CCN(CC)c1cc(C)nc(N(CC)c2c(Br)cc(C(C)=O)cc2OC)n1 | 28 nM | –
CCCCN(Cc1nn[nH]n1)c1cc(C)nc(N(CC)c2ccc(C(C)C)cc2Br)n1 | > 1000 nM | –
CCN(CC)c1cc(C)nc(N(CC)c2c(Br)cc(Br)cc2OC)n1 | 31 nM | –
CCN(CC)c1cc(C)nc(N(CC)c2ccc(C(C)C)cc2Br)n1 | 22 nM and 30 nM | –
CCN(c1nc(C)cc(C)n1)c1c(Br)cc(N(C)C)cc1OC | 5 nM | –
C=CCNc1nc(C)nc(N(CC)c2ccc(C(C)C)cc2Br)n1 | 33 nM | –
CCN(CC)c1nc(C)nc(N(CC)c2c(Br)cc(OC)cc2OC)n1 | 10 nM | –
CCN(CC)c1cc(C)nc(N(CC)c2ccc(S(C)(=O)=O)cc2Br)n1 | 24 nM | –
CCN(CC)c1cc(C)nc(N(CC)c2ccc(C(C)=O)cc2Br)n1 | 5 nM | –
CCN(CC)c1cc(C)nc(N(CC)c2ccc(SC)cc2Br)n1 | 24 nM | –
Cc1cc(C)nc(N(C)c2ccccc2I)n1 | – | 3650
CCC(CC)c1cc(C)nc(N(CC)c2ccc(C(C)C)cc2Br)n1 | 2 nM | –
C=CCN(CC=C)c1nc(C)nc(N(CC)c2ccc(OC(F)(F)F)cc2Br)n1 | 4 nM | –
CCN(CCOC)c1cc(C)nc(N(CC)c2ccc(C(C)C)cc2Br)n1 | 22 nM | –
CCC(CC)CNc1cc(C)nc(N(CC)c2ccc(C(C)C)cc2Br)n1 | 44 nM | –
CCN(c1ccc(C(C)C)cc1)c1nc(C)cc(C)n1 | > 1000 nM | –

Second part, the compound after the results:

Ki [1] | Ki [2] [nM] | SMILES
23 nM | – | CCCCN(CC)c1nc(C)nc(N(CC)c2c(C)cc(C)cc2C)n1
27 nM | – | CCN(CC)c1cc(C)nc(N(CC)c2ccc(N(C)C)cc2Br)n1
14 nM | – | CCCCN(CC)c1cc(C)nc(N(CC)c2ccc(I)cc2Br)n1
41 nM | – | CCC(CC)Nc1nc(C)nc(N(CC)c2ccc(C(C)C)cc2Br)n1
20 nM | – | CCN(CC)c1nc(C)nc(N(CC)c2ccc(N(C)C)cc2C(F)(F)F)n1
6 nM | – | CCCCN(CC#N)c1nc(C)nc(N(CC)c2ccc(N(C)C)cc2C(F)(F)F)n1
54 nM | – | CCN(c1nc(C)cc(C)n1)c1ccc(N(C)C)cc1C
5 nM | – | C=CCN(c1nc(C)nc(N(CC)c2ccc(C(C)C)cc2Br)n1)C1CC1
5 nM | – | CCCCN(CC)c1nc(C)nc(N(CC)c2ccc(C(C)C)cc2Br)n1
25 nM | – | CCN(c1nc(C)nc(N(CCOC)CC2CC2)n1)c1c(C)cc(C)cc1C
13 nM | – | CCCCN(CCOC)c1nc(C)nc(N(CC)c2c(C)cc(C)cc2C)n1
7 nM | – | CCCN(CCC#N)c1nc(C)nc(N(CC)c2ccc(N(C)C)cc2C)n1
5 nM | – | CCCN(CC1CC1)c1nc(C)nc(N(CC)c2ccc(N(C)C)cc2C(F)(F)F)n1
11 nM | – | CCCN(CCOC)c1cc(C)nc(N(CC)c2ccc(C(C)C)cc2Br)n1
31 nM | – | CCN(CCOC)c1nc(C)nc(N(CC)c2c(C)cc(C)cc2C)n1
17 nM | – | CCN(CC)c1nc(C)nc(N(CC)c2ccc(C(C)=O)cc2Br)n1
